# Results taken from patent US20240252477A1, “NLRP3 INFLAMMASOME-INHIBITING COMPOUNDS AND THE USE THEREOF” (UNIVERSITA' DEGLI STUDI DI TORINO (60%), priority 2021, published 2024).
# Experiments:
# Cytotoxicity (MTT assay) = format: cell-based, human; settings: human; THP-1 cells, 72 hours' incubation
# Method: The THP-1 cells were seeded in a 96-well plate (15.000 cells/well) and incubated with the test compounds at four different concentrations (0.1, 1, 10 and 100 μM), operating in triplicate. The cells were placed in an incubator at 37° C., with 5% CO2, and cell viability was measured after 72 hours' incubation, using the MTT assay. This is a colorimetric assay, based on conversion of water-soluble 3-(4,5-dimethylthiazol-2-yl)-2,5-diphenyltetrazolium bromide (MTT; Sigma-Aldrich) to a violet-coloured insoluble formazan, by the mitochondrial dehydrogenase present in the live cells. The formazan is solubilised in acidified isopropanol, and the concentration is determined by measuring absorbance with a microplate reader (Victor X4—Ensight, PerkinElmer) at λ=570 nm. Viability was expressed as a percentage of the viability of the control cells, which were either untreated or treated with the carrier. The IC50 was calculated with the Graph Pad Prism software.
# NLRP3 inflammasome [1] = biological target: T1, NLRP3 inflammasome (Homo sapiens, UniProt Q96P20); test: IL-1β release (ELISA) from differentiated THP-1 cells stimulated with LPS/ATP; format: cell-based; settings: at the maximum concentration tested (FIG. 1B)
# T1 construct: The THP-1 cells were differentiated into macrophages by treating them with PMA 50 nM; endogenous in cells; host or cells: THP-1 (human monocytic leukaemia line), PMA-differentiated, primed with LPS, triggered with ATP
# T1 sequence (Q96P20 whole entry): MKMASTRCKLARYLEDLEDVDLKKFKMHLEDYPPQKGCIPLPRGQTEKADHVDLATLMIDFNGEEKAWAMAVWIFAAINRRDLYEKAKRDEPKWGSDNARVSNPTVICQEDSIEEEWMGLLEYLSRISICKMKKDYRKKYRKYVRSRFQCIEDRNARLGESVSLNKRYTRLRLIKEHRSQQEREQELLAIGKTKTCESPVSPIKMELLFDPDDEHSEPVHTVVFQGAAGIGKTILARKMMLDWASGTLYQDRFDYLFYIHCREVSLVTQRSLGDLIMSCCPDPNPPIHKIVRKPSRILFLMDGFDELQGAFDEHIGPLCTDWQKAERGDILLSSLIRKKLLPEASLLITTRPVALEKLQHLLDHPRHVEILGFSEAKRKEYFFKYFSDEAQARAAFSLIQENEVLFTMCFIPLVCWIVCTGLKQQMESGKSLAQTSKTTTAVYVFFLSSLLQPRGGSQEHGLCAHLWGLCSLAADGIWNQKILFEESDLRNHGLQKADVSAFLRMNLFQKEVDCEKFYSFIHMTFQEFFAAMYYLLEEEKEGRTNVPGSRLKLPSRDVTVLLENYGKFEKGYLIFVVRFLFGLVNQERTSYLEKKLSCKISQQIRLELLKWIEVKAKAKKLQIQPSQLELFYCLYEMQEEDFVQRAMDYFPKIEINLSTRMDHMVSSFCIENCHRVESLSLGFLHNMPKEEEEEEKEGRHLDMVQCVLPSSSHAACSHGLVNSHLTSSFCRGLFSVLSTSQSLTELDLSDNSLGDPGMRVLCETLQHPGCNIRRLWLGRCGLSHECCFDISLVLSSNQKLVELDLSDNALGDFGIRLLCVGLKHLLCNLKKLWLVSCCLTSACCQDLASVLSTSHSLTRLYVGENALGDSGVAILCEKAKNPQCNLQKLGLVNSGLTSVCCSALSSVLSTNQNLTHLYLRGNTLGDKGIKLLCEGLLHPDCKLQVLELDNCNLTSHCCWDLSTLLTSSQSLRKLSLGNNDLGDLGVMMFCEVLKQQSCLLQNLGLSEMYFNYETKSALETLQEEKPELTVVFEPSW
# Method: (§1) THP-1 cells, a monocytic human cell line derived from the peripheral blood of a patient suffering from acute monocytic leukaemia (www.atcc.org), were cultured in RPMI 1640 medium (Aurogene, Rome, Italy), with the addition of foetal bovine serum (10%, Aurogene), L-glutamine (2 mM, Aurogene), penicillin (100 IU/ml, Aurogene) and streptomycin ([…], Aurogene). The medium was changed every 2-3 days, and the cells were maintained in an incubator at 37° C., with 5% CO2, and with suitable humidity.
# The cells were seeded in 48-well plates (90.000 cells/well), and differentiated with phorbol 12-myristate 13-acetate (PMA—50 nM, 24 hours; Sigma-Aldrich). On the next day, the differentiated THP-1s were washed twice with the balanced saline solution phosphate-buffered saline (PBS), and stimulated with lipopolysaccharide (LPS) (10 μg/mL, 4 hours; Sigma-Aldrich), prepared in serum-free medium. […]
# IL-1β release into the supernatant of cells treated as described above was determined with the Human IL-1 beta Uncoated ELISA kit (Invitrogen, Waltham, MA, USA), according to the manufacturer's instructions. […]
# The interleukin levels were determined by measuring absorbance at X=450 nm, using a microplate reader (Victor X4—EnSight).
# NLRP3 inflammasome [2] = biological target: T1, NLRP3 inflammasome; test: NLRP3-dependent pyroptosis (LDH release) in PMA-differentiated THP-1 cells stimulated with LPS/ATP; format: cell-based; settings: compounds at 10 μM for 1 hour; differentiated THP-1, LPS 10 μg/mL 4 hours, ATP 1.5 hours; read-out: Pyroptosis inhibition (% ± SEM)
# Method: as §1
# The cells were seeded in 48-well plates (90.000 cells/well), and differentiated with phorbol 12-myristate 13-acetate (PMA—50 nM, 24 hours; Sigma-Aldrich). On the next day, the differentiated THP-1s were washed twice with the balanced saline solution phosphate-buffered saline (PBS), and stimulated with lipopolysaccharide (LPS) (10 μg/mL, 4 hours; Sigma-Aldrich), prepared in serum-free medium. After 4 hours the cells were incubated with the compounds at the concentration of 10 μM for 1 hour, operating in triplicate; INF176 and INF177 were tested at three different concentrations: […]. Finally, the cells were stimulated with ATP 5 mm for 1.5 hours. The supernatants were then harvested for the subsequent analyses.
# LDH release into the supernatant obtained as described above was quantified using the CytoTox 96 nonradioactive cytotoxicity assay (Promega Corporation, Madison, […], USA), a colorimetric assay wherein LDH activity is measured with an NADH-dependent enzymatic reaction:
# Briefly, an equal volume of CytoTox Reagent was added to the supernatant and, after 30 minutes' incubation, the reaction was stopped by adding the stop solution. The formazan concentration was determined by measuring absorbance, using a microplate reader (Victor X4—EnSight, PerkinElmer, Waltham, MA, USA), at λ=490 nm. Cell death was expressed according to the manufacturer's instructions.
# The compound INF176 was tested to measure its ability to inhibit NLRP3-dependent cell pyroptosis in human macrophages, using the experimental protocol previously published [Cocco et al. 2017].
# The THP-1 cells were differentiated into macrophages by treating them with PMA 50 nM (24 hours) and then with LPS (10 μg/mL) for 4 hours. The cells were treated with the compound (10 μM) for 1 hour. Pyroptosis was induced by treatment with ATP 5 mm. After 90 minutes, cell death was evaluated by measuring the LDH level in the cell supernatant using the CytoTox 96 Non-Radioactive Cytotoxicity Assay (Promega Corporation, Madison, […], USA).
# colon of SAMP8 animals = test: Colon contractions elicited by electrical stimuli (in vitro), SAMP8; parameters: species or system mice
# SAMP8 mice = test: SAMP8 mice, model of neurodegenerative disorders (Morris test, brain markers); format: in vivo; settings: SAMP8, 50 mg/kg/day p.o., 2 months
# Method: Compound INF176 was tested in vivo in an animal model of mice with spontaneous accelerated senescence (SAMP8), used as a model of neurodegenerative disorders such as mild cognitive impairment (MCI), which in most cases evolve to Alzheimer's disease (AD).
# [3] = test system: murine model of colitis induced by dextran sodium sulphate (DSS); test: Colitis induced by dextran sodium sulphate (DSS), murine model; format: in vivo; settings: 25 mg/kg/day and 50 mg/kg/day p.o.
# Method: In particular, oral administration (p.o.) of INF176 at the doses of 25 mg/kg/day and 50 mg/kg/day gave rise to an improvement in the systemic and tissue parameters associated with colitis (FIGS. 2-3).
# SAMP8 animals = test: SAMP8 animals: colon transit and colon IL-1β; format: in vivo, mice
smiles,measurement,setting,value
"CCOC(=O)C1CCCN(C(=O)/C(=C/c2ccccc2Cl)CSc2ccccc2)C1 (stereo not drawn) [INF176, ethyl (Z)-1-(3-(2-chlorophenyl)-2-((phenylthio)methyl)acryloyl)piperidine-3-carboxylate]",IC50 at 72 h,Cytotoxicity (MTT assay),94.2 ± 6.9 µM
same,inhibition of IL-1beta release from human macrophages,NLRP3 inflammasome [1],35±1.2%
same,inhibition at 10 µM,NLRP3 inflammasome [2],45.2 ± 7.2%
same,cholinergic colon contractions,"colon of SAMP8 animals; SAMP8, 50 mg/kg (FIG. 5)",significantly enhancing
same,tachykininergic colon contractions,"colon of SAMP8 animals; SAMP8, 50 mg/kg (FIG. 5)",significantly enhancing
same,colon contractions elicited by electrical stimuli,"colon of SAMP8 animals; SAMP8, 50 mg/kg (FIG. 5B)",significantly improves
same,"cognitive decline (Morris test: escape latency, crossings in quadrant, entries into quadrant)",SAMP8 mice,significantly counteracts cognitive decline
same,expression of p-tau protein in brain tissues,SAMP8 mice,significantly reduces expression of p-tau protein
same,body weight (weight loss),[3],counteracts weight loss
same,disease activity index (DAI),[3],significantly reduces
same,interleukin-1beta levels in colon tissues,[3],significantly reduces
same,myeloperoxidase levels in colon tissues,[3],significantly reduces
same,spleen weight,[3],counteracts weight loss and increased spleen weight
same,colon transit (pellets expelled in 1 hour),"SAMP8 animals; SAMP8, 50 mg/kg (FIG. 5A)",improves slowing of colon transit
same,IL-1β levels in the colon,"SAMP8 animals; SAMP8, 50 mg/kg (FIG. 6)",reduces the increase in IL-1β levels
